Laboratory results as given in BindingDB's records for patent US10774051 (SHIONOGI & CO., LTD., 2020).

Molecular target: T1, P2X purinoceptor 7 [Y155H,R270H] (Homo sapiens, UniProt Q99572, R270H/Y155H)
T1 construct: gene P2RX7
Experiment: Evaluation of a Human P2X7 Receptor Inhibitory Activity
Experimental: Stably expressing cell line (1321N1 cell transfected with the human P2X7 receptor gene (GenBank accession number NM_002562.5 including T606C and G952A SNP)) was used. The cells were seeded in a 384-well microtiter plate at a concentration of 8000 cells/well and cultured in the medium (10% fetal bovine serum, 25 mM HEPES, 1% penicillin and streptomycin in DMEM) for one day at 37° C. under 5% carbon dioxide atmosphere. After replacing with 20 μL of the HBSS buffer (20 mM HEPES, 55.6 mM D-glucose, 1×HBSS(−), pH7.4-7.5), 15 μL of 17.3 μM Yo-Pro solution in the HBSS buffer was added. The plate was placed in high-throughput cellular screening system FLIPR TETRA (Molecullar Devices, LLC.) and 15 μL of 130 μM BzATP solution in the HBSS buffer was added. Measurement of fluorescence intensity by FLIPR TETRA was started. After eight minutes, 15 μL of DMSO solutions containing different concentrations of the compound of the present invention as prepared by dilution with the HBSS buffer were dispensed to each well through the built-in automatic dispenser, and the measurement of fluorescence intensity was continued for 20 minutes. […] Changing values of fluorescence intensity by the compound of the present invention were calculated by difference between maximum and minimum fluorescence intensity for 20 minutes. IC50 was calculated using logistic approximation.

T1 sequence (Q99572 whole entry Y155H/R270H, looked up): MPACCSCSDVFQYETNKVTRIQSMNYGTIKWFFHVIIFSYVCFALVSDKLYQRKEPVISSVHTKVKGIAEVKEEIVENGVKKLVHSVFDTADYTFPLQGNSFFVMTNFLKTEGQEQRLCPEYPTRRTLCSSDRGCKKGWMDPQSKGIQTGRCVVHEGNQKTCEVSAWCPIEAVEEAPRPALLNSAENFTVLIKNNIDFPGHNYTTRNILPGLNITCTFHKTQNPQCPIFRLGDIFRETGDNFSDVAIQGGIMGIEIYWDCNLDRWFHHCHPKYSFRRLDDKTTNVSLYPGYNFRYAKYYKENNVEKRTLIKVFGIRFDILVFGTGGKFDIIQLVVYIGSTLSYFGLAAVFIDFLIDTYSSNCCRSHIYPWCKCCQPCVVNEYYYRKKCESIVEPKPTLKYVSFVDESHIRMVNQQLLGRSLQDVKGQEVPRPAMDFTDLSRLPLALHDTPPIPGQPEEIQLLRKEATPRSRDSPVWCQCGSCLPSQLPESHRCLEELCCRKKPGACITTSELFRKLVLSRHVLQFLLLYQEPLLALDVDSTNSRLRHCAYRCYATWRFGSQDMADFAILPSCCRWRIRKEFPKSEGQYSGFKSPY

COc1cn(Cc2cc(F)c(F)c(F)c2)c(Nc2cccc(Cl)c2C)nc1=O [US10774051, Compound I-0004]
IC50: < 10 nM
